Where “and” joins values, the source holds several entries; their conditions need not be identical. Equal values may be shown once. Read-outs that look alike come from different tables or passages of the source.
Legend:
MDM2 = target: T1, MDM2 (Homo sapiens, UniProt Q00987); experiment: Inhibition test of MDM2-P53 (GST-MDM2, Biotin-P53, Anti-GST-Tb, SA-XL665); assay type: binding
T1 construct: made in house
Outline: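 Compounds, serially diluted 5-fold (twelve concentrations), were shaken for 90 min at 25° C with a mix of GST-MDM2 (4 nM final), Biotin-P53, anti-GST-Tb and SA-XL665. Buffer: 1×PBS, 0.1% BSA, 5 mM DTT, 1 mM AEBSF; signal read on a microplate reader.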

[1] = Pharmacokinetics in ICR mice after intravenous and intragastric administration; assay type: in vivo; conditions: for MRT last: read-out: MRT(0-t); for MRT inf: read-out: MRT(0-∞); for Vd: read-out: Vz
Outline: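 Single-dose mouse PK study: i.v. 2 mg/kg and intragastric 5 mg/kg to fasted male ICR mice, three animals per arm. Exposure and disposition parameters (Cmax, Tmax, AUC, t1/2, F, CL, Vz) came from LC-MS/MS plasma levels.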

[2] = tested on: human osteosarcoma cell line SJSA-1; experiment: Inhibition of proliferation of human osteosarcoma cell line SJSA-1 (DAPI staining, In Cell Analyzer); conditions: Homo sapiens, SJSA-1, 72 h, read-out: IC50 (nM), inhibitory activity on proliferation of human osteosarcoma cell line SJSA-1, SJSA-1, incubated 72 h
[3] = ICR mice, IV 2 mg/kg, individual animal, 2 mg/kg
[4] = ICR mice, PO 5 mg/kg, individual animal, 5 mg/kg
[5] = male, ICR, mouse, plasma, iv, 2 mg/kg, ICR mice, IV 2 mg/kg, individual animal
[6] = male, ICR, mouse, plasma, iv, 2 mg/kg, ICR mice, IV 2 mg/kg, mean of 3 animals
[7] = male, ICR, mouse, plasma, po, 5 mg/kg, ICR mice, PO 5 mg/kg, individual animal
[8] = male, ICR, mouse, plasma, po, 5 mg/kg, ICR mice, PO 5 mg/kg, mean of 3 animals

T1 sequence (Q00987 whole entry): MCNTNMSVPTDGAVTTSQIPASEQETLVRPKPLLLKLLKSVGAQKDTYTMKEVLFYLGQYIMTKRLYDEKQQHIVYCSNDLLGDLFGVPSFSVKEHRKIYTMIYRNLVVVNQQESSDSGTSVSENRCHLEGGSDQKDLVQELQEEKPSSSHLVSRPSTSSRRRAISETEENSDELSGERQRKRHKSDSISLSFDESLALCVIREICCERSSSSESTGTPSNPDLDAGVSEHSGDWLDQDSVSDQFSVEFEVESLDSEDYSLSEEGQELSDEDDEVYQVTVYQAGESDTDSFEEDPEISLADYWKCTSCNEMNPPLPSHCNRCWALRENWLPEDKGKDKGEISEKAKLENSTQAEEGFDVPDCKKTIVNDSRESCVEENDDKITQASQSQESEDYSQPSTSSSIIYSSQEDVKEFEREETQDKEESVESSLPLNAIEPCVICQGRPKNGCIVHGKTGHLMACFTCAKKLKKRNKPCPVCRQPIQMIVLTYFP

SMILES: COc1cc(OC(C)C)ncc1-c1nc2c(n1C(C)C)[C@@]1(C(=O)Nc3cc(Cl)ccc31)N(c1cc(Cl)ccc1C)C2=O [Example S-69, (S)-6-chloro-5′-(5-chloro-2-methylphenyl)-2′-(6-isopropoxy-4-methoxypyridin-3-yl)-3′-isopropyl-3′H-spiro[dihydroindole-3,4′-pyrrolo[3,4-d]imidazole]-2,6′(5′H)-dione]
- IC50 (MDM2): 1.78 nM
- AUC(0-t) [1, 3]: 50006.21 ng·h/mL and 52203.96 ng·h/mL
- AUC(0-∞) [1, 3]: 50659.35 ng·h/mL and 52314.11 ng·h/mL
- CL [1, 3]: 0.66 mL/min/kg
- Cmax [1, 3]: 5141.60 ng/mL and 6038.43 ng/mL
- MRT(0-t) [1, 3]: 4.62 h and 4.30 h
- MRT(0-∞) [1, 3]: 4.95 h and 4.35 h
- Tmax [1, 3]: 0.50 h and 0.08 h
- Vz [1, 3]: 0.23 L/kg
- t1/2 [1, 3]: 4.02 h and 2.83 h
- AUC(0-t) [1, 4]: 106563.84 ng·h/mL and 85266.27 ng·h/mL
- AUC(0-∞) [1, 4]: 106654.00 ng·h/mL and 85298.58 ng·h/mL
- Cmax [1, 4]: 10867.97 ng/mL and 11828.43 ng/mL
- MRT(0-t) [1, 4]: 5.03 h and 4.46 h
- MRT(0-∞) [1, 4]: 5.04 h and 4.47 h
- t1/2 [1, 4]: 2.28 h and 2.03 h
- AUC(0-inf) [1, 5]: 53200 ng·h/mL
- clearance [1, 5]: 0.63 mL/min/kg
- AUC(0-t) ([1]; male, ICR, mouse, plasma, iv, 2 mg/kg, ICR mice, IV 2 mg/kg, individual animal, read-out: AUC(0-t)): 53100 ng·h/mL
- Cmax ([1]; male, ICR, mouse, plasma, iv, 2 mg/kg, ICR mice, IV 2 mg/kg, individual animal, read-out: Cmax): 5980 ng/mL
- MRT last [1, 5]: 4.38 h
- MRT inf [1, 5]: 4.44 h
- Vd [1, 5]: 0.16 L/kg
- half-life ([1]; male, ICR, mouse, plasma, iv, 2 mg/kg, ICR mice, IV 2 mg/kg, individual animal, read-out: t1/2 (converted)): 2.88 h
- AUC(0-inf) [1, 6]: 52100 ng·h/mL
- clearance [1, 6]: 0.64 mL/min/kg
- AUC(0-t) ([1]; male, ICR, mouse, plasma, iv, 2 mg/kg, ICR mice, IV 2 mg/kg, mean of 3 animals, read-out: AUC(0-t)): 51800 ng·h/mL
- Cmax ([1]; male, ICR, mouse, plasma, iv, 2 mg/kg, ICR mice, IV 2 mg/kg, mean of 3 animals, read-out: Cmax): 5720 ng/mL
- MRT last [1, 6]: 4.43 h
- MRT inf [1, 6]: 4.58 h
- Tmax ([1]; male, ICR, mouse, plasma, iv, 2 mg/kg, ICR mice, IV 2 mg/kg, mean of 3 animals, read-out: Tmax): 0.222 h
- Vd [1, 6]: 0.18 L/kg
- half-life ([1]; male, ICR, mouse, plasma, iv, 2 mg/kg, ICR mice, IV 2 mg/kg, mean of 3 animals, read-out: t1/2 (converted)): 3.24 h
- AUC(0-inf) [1, 7]: 69300 ng·h/mL
- AUC(0-t) ([1]; male, ICR, mouse, plasma, po, 5 mg/kg, ICR mice, PO 5 mg/kg, individual animal, read-out: AUC(0-t)): 69200 ng·h/mL
- Cmax ([1]; male, ICR, mouse, plasma, po, 5 mg/kg, ICR mice, PO 5 mg/kg, individual animal, read-out: Cmax): 7630 ng/mL
- MRT last [1, 7]: 4.92 h
- MRT inf [1, 7]: 4.94 h
- Tmax ([1]; male, ICR, mouse, plasma, po, 5 mg/kg, ICR mice, PO 5 mg/kg, individual animal, read-out: Tmax): 2 h
- half-life ([1]; male, ICR, mouse, plasma, po, 5 mg/kg, ICR mice, PO 5 mg/kg, individual animal, read-out: t1/2 (converted)): 2.24 h
- AUC(0-inf) [1, 8]: 87100 ng·h/mL
- AUC(0-t) ([1]; male, ICR, mouse, plasma, po, 5 mg/kg, ICR mice, PO 5 mg/kg, mean of 3 animals, read-out: AUC(0-t)): 87000 ng·h/mL
- Cmax ([1]; male, ICR, mouse, plasma, po, 5 mg/kg, ICR mice, PO 5 mg/kg, mean of 3 animals, read-out: Cmax): 10100 ng/mL
- MRT last [1, 8]: 4.8 h
- MRT inf [1, 8]: 4.82 h
- Tmax ([1]; male, ICR, mouse, plasma, po, 5 mg/kg, ICR mice, PO 5 mg/kg, mean of 3 animals, read-out: Tmax): 2 h
- half-life ([1]; male, ICR, mouse, plasma, po, 5 mg/kg, ICR mice, PO 5 mg/kg, mean of 3 animals, read-out: t1/2 (converted)): 2.18 h
- AUC(0-t) ([1]; male, ICR, mouse, plasma, po, 5 mg/kg, oral intragastric administration 5 mg/kg, read-out: AUC0-t): 87000 ng·h/mL
- half-life ([1]; male, ICR, mouse, plasma, po, 5 mg/kg, oral intragastric administration 5 mg/kg, read-out: half-life (converted)): 2.18 h
- bioavailability ([1]; male, mouse, plasma, ICR mice, PO 5 mg/kg vs IV 2 mg/kg, from mean values, read-out: F* (bioavailability)): 67.2%
- IC50 [2]: 2.29 nM

Source: patent publication US11339171B2, “MDM2 inhibitors” (Gan & Lee Pharmaceuticals, priority 2017, dated 2022)
